Results on one compound are retold here after patent US8487137B2, “Photochemical crosslinkers for polymer coatings and substrate tie-layer” (Innovative Surface Technologies, LLC, priority 2005, dated 2013).

A short description of data set [1]: Static contact angle with water on coated PVC coverslips (goniometer). Type of data set: physicochemical. How it is done: A coating solution was made up from the crude glycol linker product isolated in Example 3 (0.5 mg/ml glycol in isopropanol with 50 mg/ml polyvinylpyrrolidone (Kollidon K30, BASF, N.J.)). 100 μl of the coating solution was applied to PVC coverslips (Fisher Scientific, Pittsburgh, Pa.) and allowed to dry overnight. All pieces were illuminated for a set time in a uv crosslinker (UVP CL-1000, Upland, Calif., 254 nm light, 120,000 μJ/cm^2) from 0 to 10 minutes. Pieces were then rinsed for 30 minutes in deionized water with gentle agitation. The static contact angle with water was taken on a goniometer (MicroVu 400, Santa Ana, Calif.), three 3 μl drops of water were measured, three times apiece. Contact angles are shown below.
A coating solution of purified triazine crosslinker isolated in Example 1 was made by adding 44 mg of crosslinker to 1 ml of acetone, diluted with 19 ml of isopropanol, then adding 1000 mg of poly(vinylpyrrolidone) (PVP) (Kollidon K30, BASF, N.J.). The resulting solution was thoroughly mixed on an orbital shaker for four hours. 18 samples were prepared by adding 100, 200, or 500 μl of coating solution onto PVC Coverslips (Fisher Scientific, Pittsburgh, Pa.) (n=6 for each condition), then air drying. The sample pieces were illuminated for five minutes in a uv chamber (UVP CL-1000, Upland, Calif., 254 nm light, 120,000 μJ/cm^2), then rinsed for four hours in deionized water with gentle agitation. 4 pieces of each variable were then stained with Congo red dye to determine the presence of PVP. For each coating condition, two of the four stained pieces were then rubbed with a wet glove to determine durability of the coating to simple rubbing. The remaining two unstained sample pieces for each coating condition were then assessed for static contact angle by threefold measurement of three 3 μl drops of water on a goniometer (MicroVu 400, Santa Ana, Calif.).

Data set [2] is described as follows: Solubility of crosslinker in common solvents and water. The following applies: chloroform, methylene chloride, acetone, ethyl acetate, isopropanol, etc. Type of data set: physicochemical. An excerpt:
The peaks at d 7.78 ppm (m, 12H), 7.46 ppm (m, 9H), 6.98 ppm (m, 6H) were the typical signals from 4-substituted benzophenone. The peak at d 4.35 ppm (m, 6H) was assigned to the protons of methylene connected to phenoxy group. The peak at d 4.13 ppm (m, 9H) was a combination of 6 protons of 3 methylene groups connected to nitrogen atom and 3 protons from 3 methine groups. The peak at d 3.00 ppm (s, 3H) corresponded to hydroxyl groups.
The peaks at 7.49˜7.79 ppm (m, 18H) were the typical signals from 4-substituted benzophenone. The peak at 4.66 ppm (s, 4H) was assigned to the protons of methylene connected to benzophenone group. The peak at 3.70 ppm (m, 16H) corresponded to ethylene groups.
The peaks at 7.26˜7.79 ppm (m, 18H) were the typical signals from 4-substituted benzophenone. The peak at 4.64 ppm (s, 4H) was assigned to the protons of methylene connected to benzophenone group. The peak at 3.66 ppm (m, 24H) corresponded to ethylene groups.

`O=C(c1ccccc1)c1ccc(OCC(O)Cn2c(=O)n(CC(O)COc3ccc(C(=O)c4ccccc4)cc3)c(=O)n(CC(O)COc3ccc(C(=O)c4ccccc4)cc3)c2=O)cc1` (stereo not shown) [Example 1]: the “Contact angle (rinse only)” value amounted to 35.3 ± 3.4 in data set [1] (triazine crosslinker/PVP K30, Coating 100 ml); 38.7 ± 2.6 in data set [1] (triazine crosslinker/PVP K30, Coating 200 ml); 29.2 ± 2.2 in data set [1] (triazine crosslinker/PVP K30, Coating 500 ml). For the same compound, the “solubility in most common solvents” value in data set [2] was “soluble in most common solvents”.
